# According to patent US9580707B2, “Peptide antimicrobials” (Wayne State University, priority 2010, dated 2017):
# Test system: E. coli DH5α
# Assay: Induced growth curves of E. coli expressing peptide-PhoA fusions in the periplasm (periplasmic in vivo display)
# Assay type: cell-based
# Conditions: peptide expressed as PhoA fusion in the periplasm, arabinose induction, OD600
# Experimental: Numerous periplasmic screens have been performed for the identification of bacteriolytic peptides, encompassing more than 90 million clones. Selected clones have been sequenced and confirmed by induced growth curves, confirming that the disclosed bacteriolytic screen enriches plasmid preparations for peptides that elicit cell lysis. For example, an isolated clone is grown in fresh LB medium to early log phase. Arabinose is added to induced peptide-PhoA fusion expression, and the peptide's effect on growth is observed by measuring the cell density of the culture. Many clones of differing growth phenotypes were analyzed. Bacteriolytic peptides have predominated the extracted clones, which is to be expected given that the bacteriolytic screen was used. Peptides were recovered that had either a bacteriostatic or bactericidal effect and others that have a weakly inhibitory effect as they reduce the rate of E. coli's growth […] and may find use as precursors to actual peptide hits.
# Phenotype definitions: Bacteriolytic: OD600 of culture decreases in value, correlating with a reduction in the concentration of cells. Bactriostatic/bactericidal: OD600 of culture flatlines, correlating with a complete stop in the growth of the cells and constant cell density. Weakly inhibitory OD600<0.7: Replication is slowed but not stopped. Final OD600 as culture enters stationary phase is less than 0.7. Weakly inhibitory OD600>0.7: Similar to the above, only final OD600 exceeds 0.7. Peptides have only a minor effect on growth. Non-inhibitory: No growth effect was observed versus the expression of PhoA with no peptide at its N-terminus.
# After replica plating, clones were grown in LB+30 μg/ml kanamycin. When OD600˜0.15, arabinose was added to a final concentration of 0.2%. The OD600 of the culture was then measured every 30 minutes to see the effect of peptide-PhoA fusion expression on the cell. […]
row,Substance,antimicrobial activity / growth phenotype after induction
1,EOD037 Pro+: EOD037 in which an alanine was replaced with a proline (IRWLPRRWRRTF; Antimicrobial peptide EOD037Pro+),loss of antimicrobial activity
2,EOD037: inhibitory peptide from the early onset degenerate peptide library (IRWLARRWRRTF; Antimicrobial peptide EOD037),inhibitory
3,"EOD084: non-inhibitory, proline-containing peptide from the early onset degenerate peptide library (FMRLPRWWRRMQ; Antimicrobial peptide EOD084)",non-inhibitory
